Patent publication US8093396B2, “Benzthiazole inhibitors of poly(ADP-ribose)polymerase” (Abbott Laboratories, priority 2009, dated 2012)

Biological target: PARP-1 (Homo sapiens, UniProt P09874)
Assay: Inhibition of PARP by Compounds Having Formula I
Type: biochemical

PARP-1, sequence (P09874 whole entry, species assumed): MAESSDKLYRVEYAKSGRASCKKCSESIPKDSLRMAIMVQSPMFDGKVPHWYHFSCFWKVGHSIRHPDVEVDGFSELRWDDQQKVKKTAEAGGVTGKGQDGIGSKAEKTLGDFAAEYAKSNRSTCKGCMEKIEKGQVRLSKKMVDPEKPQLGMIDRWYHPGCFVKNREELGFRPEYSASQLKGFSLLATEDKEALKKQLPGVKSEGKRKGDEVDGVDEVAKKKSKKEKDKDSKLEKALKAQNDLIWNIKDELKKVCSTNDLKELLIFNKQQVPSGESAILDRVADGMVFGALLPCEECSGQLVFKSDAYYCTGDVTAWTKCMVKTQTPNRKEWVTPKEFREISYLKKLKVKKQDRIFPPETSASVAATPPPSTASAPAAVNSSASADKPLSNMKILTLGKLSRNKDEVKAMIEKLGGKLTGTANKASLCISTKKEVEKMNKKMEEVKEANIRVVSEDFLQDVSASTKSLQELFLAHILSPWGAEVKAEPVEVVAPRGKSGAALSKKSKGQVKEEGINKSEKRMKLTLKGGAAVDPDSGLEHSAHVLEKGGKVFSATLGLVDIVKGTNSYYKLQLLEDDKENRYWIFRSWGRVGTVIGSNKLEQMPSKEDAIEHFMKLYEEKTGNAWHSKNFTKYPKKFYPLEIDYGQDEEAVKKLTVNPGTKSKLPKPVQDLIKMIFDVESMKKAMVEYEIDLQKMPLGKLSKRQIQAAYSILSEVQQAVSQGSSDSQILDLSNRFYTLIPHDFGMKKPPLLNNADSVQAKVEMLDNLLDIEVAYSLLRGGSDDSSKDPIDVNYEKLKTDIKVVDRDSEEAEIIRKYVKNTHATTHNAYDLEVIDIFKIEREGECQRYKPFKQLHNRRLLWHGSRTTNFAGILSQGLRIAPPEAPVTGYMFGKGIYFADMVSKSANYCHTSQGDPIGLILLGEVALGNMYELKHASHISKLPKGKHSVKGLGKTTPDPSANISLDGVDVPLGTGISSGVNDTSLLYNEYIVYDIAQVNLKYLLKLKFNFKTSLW

Row | Ki [nM] | SMILES
1 | 45 | NC(=O)c1cccc2sc(-c3ccc(OS(=O)(=O)C(F)(F)F)cc3)nc12 [Example 1, 4-[4-(aminocarbonyl)-1,3-benzothiazol-2-yl]phenyl trifluoromethanesulfonate]
2 | 316 | NC(=O)c1cccc2sc(-c3ccc(-c4ccccc4)cc3)nc12 [Example 2, 2-(1,1′-biphenyl-4-yl)-1,3-benzothiazole-4-carboxamide]
3 | 9.5 | NC(=O)c1cccc2sc(-c3ccc(-c4cccnc4)cc3)nc12 [Example 3, 2-(4-pyridin-3-ylphenyl)-1,3-benzothiazole-4-carboxamide]
4 | 26 | NC(=O)c1cccc2sc(-c3ccc(-c4ccncc4)cc3)nc12 [Example 4, 2-(4-pyridin-4-ylphenyl)-1,3-benzothiazole-4-carboxamide]
